Data on three compounds can be found in patent US9872833B2, “Liposome composite body” (National University Corporation Tottori University, priority 2011, dated 2018).

The nature of data set [1]: Heat generating capacity of ICG-11. To be noted: excitation 808 nm, 0.5 W/m^2; ICG-11 0 to 4 μM. In kind it is physicochemical. As for the experimental part: (3) Heat Generating Capacity of ICG-11
The heat generating capacity of […] was measured using the following conditions.
(§1) The measurement conditions were as follows.
Excitation was carried out at an excitation wavelength of 808 nm and an output of 0.5 W/m^2. The temperature was measured at 1-second intervals.
In FIG. 13, the black, red, blue, and green lines indicate the results when the concentration of ICG-11 was 0 μM, 1 μM, 2 μM, and 4 μM, respectively.

Data set [2] in a line: Fluorescence spectral characteristic of ICG-11 in polar and non-polar solvent. In kind it is physicochemical. The following applies: 1 μM; for fluorescence emission: in chloroform as non-polar solvent. As for the experimental part: (1) Fluorescence Spectral Characteristic of ICG-11
The physical properties of ICG-11 were examined in aqueous solutions different in polarity in comparison with ICG.
(a) Comparison in Methanol as Polar Solvent
(b) Comparison in Chloroform as Non-Polar Solvent
In FIG. 11, the black and red lines indicate the results for ICG-11 (concentration: 1 μM) and ICG (concentration: 1 μM), respectively.

Data set [3] is described as follows: Measurement of singlet oxygen. In kind it is physicochemical. The following applies: excitation wavelength 690 nm, 20 mW; singlet oxygen detected at 1,270 nm. As for the experimental part:
The measurement conditions are as follows.
Excitation was carried out with a dye laser using an excitation wavelength of 690 nm, an average output of 20 mW, a repetition frequency of 30 Hz, a pulse width of about […], and DCM.
For detection, light was dispersed by a spectroscope (focal distance: 250 mm, grating: 600 L/mm) using a gated near-infrared image intensifier (NIR-PII) cooled at −80° C., followed by measurement for 200 microseconds from 30 microseconds after excitation.
In FIG. 10, the red line indicates the generation of singlet oxygen (1,270 nm) derived from ICG-8, and the blue line indicates singlet oxygen scavenging by β-carotene (concentration: 4 μM).
as §1
In FIG. 12, the red line indicates the generation of singlet oxygen (1,270 nm) derived from ICG-11, and the blue line indicates singlet oxygen scavenging by β-carotene (concentration: 6 μM).

A short description of data set [4]: Fluorescence spectrum of liposome dispersions. The following applies: liposome dispersion; excitation wavelength 736 nm. In kind it is physicochemical. As for the experimental part:
(1) Fluorescence Spectrum
Dispersion of Liposome Including ICG (ICG
A chloroform/methanol (9:1, v/v) solution containing 10.0 mM of egg yolk-derived phosphatidylcholine and 3.2×10^−2 mM of ICG (Diagnogreen injection, Daiichi Sankyo) was prepared; 3 mL thereof was subjected to the distillation off of the solvent under reduced pressure; and 3 mL of a physiological saline was added to the formed thin membrane, which was then treated using a filter having a pore diameter of 0.22 μm to provide liposomes.
(§2) Dispersion of Liposome Having ICG-8 in Lipid Bilayer Membrane (LP-ICG-8)
A chloroform/methanol (9:1, v/v) solution containing 10.0 mM of egg yolk-derived phosphatidylcholine and 3.2×10^−2 mM of ICG-8 was prepared; 3 mL thereof was subjected to the distillation off of the solvent under reduced pressure; and 3 mL of a physiological saline was added to the formed thin membrane, which was then treated using a filter having a pore diameter of 0.22 μm to provide liposomes.
When the above liposome dispersions were measured for fluorescence spectra (Jasco FP-6600), fluorescence spectra as shown in FIG. 2 were obtained at an excitation wavelength of 736 nm. The maximum fluorescence wavelength for ICG was 852 nm, and the maximum fluorescence wavelength for ICG-8 was 854 nm.

In data set [5] the test system is cancer (glioma) under the skin using the brain tumor cells 9 L. Put plainly: Near-infrared camera image after intravenous administration (tumor accumulation). The data set is classed as in vivo, rat. To be noted: 500 μL through the cervical vein; 5 minutes after administration; 9 L tumor-bearing rats. As for the experimental part:
(2) Near-Infrared Camera Image after Intravenous Administration
ICG Aqueous Solution (ICG)
ICG was dissolved to 3.2 mM in pure water and diluted by 100-fold with a physiological saline.
as §2
A chloroform/methanol (9:1, v/v) solution containing egg yolk-derived phosphatidylcholine (10.0 mM), cholesterol (1.0 mM), polyethylene glycol-modified phosphatidylethanolamine (PEG-PE) (5.0×10^−1 mM), and ICG-8 (3.2×10^−2 mM) was prepared; 5 mL thereof was evaporated under reduced pressure; 5 mL of a physiological saline was added to the formed thin membrane, which was then treated using a filter having a pore diameter of 0.22 μm; and the resultant was further treated using a filter having a pore diameter of 0.05 μm to provide liposomes.
F344/Jc1 34-36 weeks 9 L rats were used for the test. […] After cutting the hair over the tumor location, 500 μL of the ICG aqueous solution or LP-ICG-8 was administered through the cervical vein. Fluorescent observation (Hyper Eye Medical System from Mizuho Corporation, excitation wavelength: 760 to 780 nm, fluorescence wavelength: >780 nm) was carried out 5 minutes after administration (FIG. 3). The distance between each rat and the camera head was 50 cm.

A short description of data set [6]: Loading amount in liposome (gel filtration). The data set is classed as physicochemical. To be noted: liposomes formed at ICG:DOPC of 1:40 or 1:20. As to the method: The amount of ICG-11 loadable in the liposome was examined by changing the mixing ratio between ICG-11 and dioleoylphosphatidylcholine (DOPC) as the main component of the lipid bilayer membrane. For comparison, the amount of loadable ICG was examined.
In chloroform/methanol (9:1, v/v) solution were dissolved DOPC (10 mM), cholesterol (5 mM), polyethylene glycol-modified phosphatidylethanolamine (PEG-PE, 0.5 mM), and ICG-11 (0 to 5 mM) or ICG (0 to 0.5 mM); a portion of the resultant solution was dried under reduced pressure; and a physiological saline was added to the formed thin membrane, which was then treated using a filter having a pore diameter of 100 nm to provide a liposome dispersion.
The amount of incorporation of ICG-11 into the lipid bilayer membrane when it formed a liposome was measured using the following conditions.
Liposomes into which ICG-11 or ICG was incorporated and ICG-11 or ICG released into a liposome dispersion without being incorporated into the lipid bilayer membrane were separated and determined using a gel filtration column (PD-10 from GE) (FIG. 14).

Turning to `CCCCCCCC/C=C\CCCCCCCC(=O)OC[C@H](COP(=O)(O)OCCNC(=O)CCN1/C(=C/C=C/C=C/C=C/C2=[N+](CCCCS(=O)(=O)O)c3ccc4ccccc4c3C2(C)C)C(C)(C)c2c1ccc1ccccc21)OC(=O)CCCCCCC/C=C\CCCCCCCC` [ICG-11, 4-(2-((1E,3E,5E,7E)-7-(3-(2-(1,2-dioleoyl-sn-glycero-3-phosphoethanolaminocarbonyl)ethyl)-1,1-dimethyl-1H-benzo[e]indol-2(3H)-ylidene)hepta-1,3,5-trienyl)-1,1-dimethyl-1H-benzo[e]indolium-3-yl)butane-1-sulfonic acid], the heat generating capacity entry in data set [1] was “had a heat-generating capacity (increasing the tissue temperature from 37 °C to 43° C.)”. Also, the fluorescence emission result in data set [2] is on record as “sufficiently strong fluorescence”. In data set [2] (in methanol as polar solvent), the “fluorescence compared to ICG” value is listed as 1.5 fold. For the same compound, the singlet oxygen-producing capacity result in data set [3] is “had a singlet oxygen-producing capacity”.
“4-(2-((1E,3E,5E,7E)-7-(1,1-dimethyl-3-octadecyl-1H-benzo[e]indol-2(3H)-ylidene)hepta-1,3,5-trienyl)-1,1-dimethyl-1H-benzo[e]indolium-3-yl)butane-1-sulfonic acid [ICG-8]” had a maximum fluorescence wavelength in data set [4] of 854 nm. Besides, the singlet oxygen-producing capacity result in data set [3] is given as “had a singlet oxygen-producing capacity”.
`CC1(C)C(/C=C/C=C/C=C/C=C2\N(CCCCS(=O)(=O)O)c3ccc4ccccc4c3C2(C)C)=[N+](CCCCS(=O)(=O)[O-])c2ccc3ccccc3c21` [ICG, indocyanine green, reference compound] returned a maximum fluorescence wavelength in data set [4] of 852 nm. Also, the fluorescence emission result in data set [2] was “not emitting fluorescence”. In addition, the “accumulation in the tumor tissue (fluorescent observation)” value in data set [5] is reported as “did not result in the accumulation of ICG in the tumor tissue”. Besides, the “dye not incorporated into the lipid bilayer membrane” value in data set [6] was “ICG not incorporated into the lipid bilayer membrane increased in the dispersion”.
